This assay has as its target human A2A receptor (A2AR) (Homo sapiens (Human), UniProt P29274). The experiment in a line: Luciferase reporter assay (HEK293-A2AR-luc2p/CRE/Hygro cells). Particulars: 3 nM CGS21680, 5 h incubation. The format is cell-based. Here is the method:
HEK293 cells were maintained in Dulbecco's modified Eagle's medium (DMEM, Gibco) supplemented with 10% fetal bovine serum (FBS, Thermo Scientific), 100 units/mL penicillin (Gibco), and 0.1 mg/mL streptomycin (Gibco) in a humidified 37° C. environment with 5% CO2. Plasmid encoding wild-type human A2A receptor (A2AR) (in pcDNA3.1) was synthesized by Genscript (Nanjing, China). Transfection of the plasmids was performed in 6-well plates with 4×10^5 cells using Lipofectamin 2000 (ThermoFisher Scientific) according to the instruction of the manufacturer. Cell clones that stably express A2AR were established and maintained in the same complete medium as the HEK293 cells in addition of G-418 (Gibico). Expression level of A2AR in each single cell clone was determined using immunoblotting and FACS method. HEK293-A2AR stable cells were then transfected with pGL4.29[luc2P/CRE/Hygro] (Promega) luciferase reporter plasmid for establishing the HEK293-A2AR-luc2p/CRE/Hygro stable cell line.
HEK293-A2AR-luc2p/CRE/Hygro cells were seeded at a density of 5,000 cells/well in DMEM with 1% FBS and 1 U/mL adenosine deaminase (ADA) (Sigma). After 18 h, the cells were treated with 3 nM CGS21680 plus a series dilution of A2AR antagonist, the compounds disclosed herein at the concentration of 0.1˜10000 nM, prepared in DMEM with 1% FBS. After 5 h incubation, the luciferase activity in cells were measured using the Bright-Glo Luciferase Assay System (Promega) according to manufacturer's instructions. The luminescence signal was measured using a PHERAstar FS plate reader (BMG Labtech). […] Maximal luminescence intensity was determined in the presence of 3 nM CGS21680 and was set as 100%. The IC50 value was calculated from a dose dependent inhibition curve across the range of compound concentrations.
On the technique in general: Reporter assays use an easily measured gene product as a stand-in for the process of interest.

human A2A receptor (A2AR), sequence (P29274 whole entry): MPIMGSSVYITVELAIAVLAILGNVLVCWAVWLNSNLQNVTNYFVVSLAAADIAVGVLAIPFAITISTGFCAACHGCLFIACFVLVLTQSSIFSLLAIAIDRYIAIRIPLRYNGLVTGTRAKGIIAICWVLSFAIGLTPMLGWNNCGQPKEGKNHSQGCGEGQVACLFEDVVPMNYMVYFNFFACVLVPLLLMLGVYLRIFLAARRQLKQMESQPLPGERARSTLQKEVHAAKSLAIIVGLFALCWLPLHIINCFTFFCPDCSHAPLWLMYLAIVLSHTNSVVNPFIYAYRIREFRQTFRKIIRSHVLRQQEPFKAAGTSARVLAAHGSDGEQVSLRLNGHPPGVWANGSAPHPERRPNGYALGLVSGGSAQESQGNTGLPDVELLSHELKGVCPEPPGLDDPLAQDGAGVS

Take `Cc1cccc(CCNC(=O)[C@@](C)(c2ccccc2)n2ncc3c2nc(N)n2nc(-c4ccco4)nc32)n1` [Example 150B, (R)-2-(5-amino-2-(furan-2-yl)-7H-pyrazolo[4,3-e][1,2,4]triazolo[1,5-c]pyrimidin-7-yl)-N-(2-(6-methylpyridin-2-yl)ethyl)-2-phenylpropanamide]: the half-maximal inhibitory concentration (IC50) – broadly, the point on the concentration scale where inhibition reaches its midpoint – amounted to 26.5 nM.
For `Cc1cccc(CNC(=O)C(C)(c2ccccc2)n2ncc3c2nc(N)n2nc(-c4ccco4)nc32)n1` (centres unmarked) [Example 108, 2-(5-amino-2-(furan-2-yl)-7H-pyrazolo[4,3-e][1,2,4]triazolo[1,5-c]pyrimidin-7-yl)-N-((6-methylpyridin-2-yl)methyl)-2-phenylpropanamide] the value was 3 nM.
With `CC(C(=O)NCC1(O)COC1)(c1ccccc1)n1ncc2c1nc(N)n1nc(-c3nccs3)nc21` (centres unmarked) [Example 133, 2-(5-amino-2-(thiazol-2-yl)-7H-pyrazolo[4,3-e][1,2,4]triazolo[1,5-c]pyrimidin-7-yl)-N-((3-hydroxyoxetan-3-yl)methyl)-2-phenylpropanamide], the IC50 was found to be 15 nM.
Regarding `CC(C(=O)NCC1CCOCC1)(c1ccccc1)n1ncc2c1nc(N)n1nc(-c3ccco3)nc21` (centres unmarked) [Example 97, 2-(5-amino-2-(furan-2-yl)-7H-pyrazolo[4,3-e][1,2,4]triazolo[1,5-c]pyrimidin-7-yl)-2-phenyl-N-((tetrahydro-2H-pyran-4-yl)methyl)propenamide], the half-maximal inhibitory concentration (IC50) worked out at 10.4 nM.
For `C[C@@](C(=O)NCC1(O)COC1)(c1ccccc1)n1ncc2c1nc(N)n1nc(-c3ccco3)nc21` [Example 31A] the value was 28 nM.
Turning to `C[C@@H](O)CNC(=O)C(C)(c1ccccc1)n1ncc2c1nc(N)n1nc(-c3ccco3)nc21` (stereo partly drawn) [Example 38, 2-(5-amino-2-(furan-2-yl)-7H-pyrazolo[4,3-e][1,2,4]triazolo[1,5-c]pyrimidin-7-yl)-N—((R)-2-hydroxypropyl)-2-phenylpropanamide], it took 22.6 nM to reach half-maximal inhibition (IC50).
For `Nc1nc2c(cnn2C(C(=O)NCc2ccc(C(F)(F)F)cc2)c2ccccc2)c2nc(-c3ccco3)nn12` (centres unmarked) [Example 29, 2-(5-amino-2-(furan-2-yl)-7H-pyrazolo[4,3-e][1,2,4]triazolo[1,5-c]pyrimidin-7-yl)-2-phenyl-N-(4-(trifluoromethyl)benzyl)acetamide] the value was 1.3 nM; for `CC(C(=O)NC1CCC(=O)CC1)(c1ccccc1)n1ncc2c1nc(N)n1nc(-c3ccco3)nc21` (centres unmarked) [Example 128, 2-(5-amino-2-(furan-2-yl)-7H-pyrazolo[4,3-e][1,2,4]triazolo[1,5-c]pyrimidin-7-yl)-N-(4-oxocyclohexyl)-2-phenylpropanamide], 12.8 nM; for `Cc1ccccc1C(C)(C(=O)NCC1(O)COC1)n1ncc2c1nc(N)n1nc(-c3ccco3)nc21` (centres unmarked) [Example 63, 2-(5-amino-2-(furan-2-yl)-7H-pyrazolo[4,3-e][1,2,4]triazolo[1,5-c]pyrimidin-7-yl)-N-((3-hydroxyoxetan-3-yl)methyl)-2-(o-tolyl)propanamide], 4.3 nM.
In the case of `CC(C(=O)N[C@H]1C[C@@H](O)C1)(c1ccccc1)n1ncc2c1nc(N)n1nc(-c3ccco3)nc21` (some centres unmarked) [Example 104, 2-(5-amino-2-(furan-2-yl)-7H-pyrazolo[4,3-e][1,2,4]triazolo[1,5-c]pyrimidin-7-yl)-N-((1s,3s)-3-hydroxycyclobutyl)-2-phenylpropanamide], half-maximal inhibition (IC50) required 18.2 nM.
Compound `CC(C(=O)NCc1cccc(C2(O)CCC2)n1)(c1ccccc1)n1ncc2c1nc(N)n1nc(-c3ccco3)nc21` (centres unmarked) [Example 130, 2-(5-amino-2-(furan-2-yl)-7H-pyrazolo[4,3-e][1,2,4]triazolo[1,5-c]pyrimidin-7-yl)-N-((6-(1-hydroxycyclobutyl)pyridin-2-yl)methyl)-2-phenylpropanamide] registered a half-inhibitory concentration (IC50) of 6.9 nM.
For `CC(C(=O)Nc1ccccc1)(c1ccccc1)n1ncc2c1nc(N)n1nc(-c3ccco3)nc21` (centres unmarked) [Example 34, 2-(5-amino-2-(furan-2-yl)-7H-pyrazolo[4,3-e][1,2,4]triazolo[1,5-c]pyrimidin-7-yl)-N,2-diphenylpropanamide] the value was 9.5 nM; for `COc1ccc(CNC(=O)C(c2ccccc2)n2ncc3c2nc(N)n2nc(-c4ccco4)nc32)cc1` (centres unmarked) [Example 28, 2-(5-amino-2-(furan-2-yl)-7H-pyrazolo[4,3-e][1,2,4]triazolo[1,5-c]pyrimidin-7-yl)-N-(4-methoxybenzyl)-2-phenylacetamide], 1.6 nM; for `CC(C(=O)NC[C@@H]1CCCO1)(c1ccccc1)n1ncc2c1nc(N)n1nc(-c3ccco3)nc21` (stereo partly drawn) [Example 51, 2-(5-amino-2-(furan-2-yl)-7H-pyrazolo[4,3-e][1,2,4]triazolo[1,5-c]pyrimidin-7-yl)-2-phenyl-N—(((S)-tetrahydrofuran-2-yl)methyl)propanamide], 2.7 nM.
With `CC(C(=O)N[C@H]1CCC[C@H]1O)(c1ccccc1)n1ncc2c1nc(N)n1nc(-c3ccco3)nc21` (stereo partly drawn) [Example 47, 2-(5-amino-2-(furan-2-yl)-7H-pyrazolo[4,3-e][1,2,4]triazolo[1,5-c]pyrimidin-7-yl)-N-((1S,2R)-2-hydroxycyclopentyl)-2-phenylpropanamide] the figure was 12.8 nM.
The compound `C[C@@](C(=O)N[C@@H]1CCC[C@@H]1O)(c1ccccc1)n1ncc2c1nc(N)n1nc(-c3ccco3)nc21` [Example 48A, (S)-2-(5-amino-2-(furan-2-yl)-7H-pyrazolo[4,3-e][1,2,4]triazolo[1,5-c]pyrimidin-7-yl)-N-((1R,2S)-2-hydroxycyclopentyl)-2-phenylpropanamide] yielded an IC50 of 12.6 nM.
With `NC(=O)C(c1ccccc1)n1ncc2c1nc(N)n1nc(-c3ccco3)nc21` (centres unmarked) [Example 19, 2-(5-amino-2-(furan-2-yl)-7H-pyrazolo[4,3-e][1,2,4]triazolo[1,5-c]pyrimidin-7-yl)-2-phenylacetamide] the figure was 4.5 nM; with `CC(C(=O)NC[C@@H]1CCOC1)(c1ccccc1)n1ncc2c1nc(N)n1nc(-c3ccco3)nc21` (stereo partly drawn) [Example 53, 2-(5-amino-2-(furan-2-yl)-7H-pyrazolo[4,3-e][1,2,4]triazolo[1,5-c]pyrimidin-7-yl)-2-phenyl-N—(((S)-tetrahydrofuran-3-yl)methyl)propanamide], 12.5 nM; with `C[C@](C(=O)O)(c1ccccc1)n1ncc2c1nc(N)n1nc(-c3ccco3)nc21` [Intermediate-Ib, (R)-2-(5-amino-2-(furan-2-yl)-7H-pyrazolo[4,3-e][1,2,4]triazolo[1,5-c]pyrimidin-7-yl)-2-phenylpropanoic acid], 567 nM.
With `CCNC(=O)C(c1ccccc1)n1ncc2c1nc(N)n1nc(-c3ccco3)nc21` (centres unmarked) [Example 5, 2-(5-amino-2-(furan-2-yl)-7H-pyrazolo[4,3-e][1,2,4]triazolo[1,5-c]pyrimidin-7-yl)-N-ethyl-2-phenylacetamide] the figure was 7 nM; with `Nc1nc2c(cnn2C2(C(=O)NCC3(O)COC3)CCCc3ccccc32)c2nc(-c3ccco3)nn12` (centres unmarked) [Example 93, 1-(5-amino-2-(furan-2-yl)-7H-pyrazolo[4,3-e][1,2,4]triazolo[1,5-c]pyrimidin-7-yl)-N-((3-hydroxyoxetan-3-yl)methyl)-1,2,3,4-tetrahydronaphthalene-1-carboxamide], 3.8 nM; with `C[C@](C(=O)NCc1cc(F)ccn1)(c1ccccc1)n1ncc2c1nc(N)n1nc(-c3ccco3)nc21` [Example 118B, (R)-2-(5-amino-2-(furan-2-yl)-7H-pyrazolo[4,3-e][1,2,4]triazolo[1,5-c]pyrimidin-7-yl)-N-((4-fluoropyridin-2-yl)methyl)-2-phenylpropanamide], 6 nM.
With `CC(C(=O)NCC1CCCO1)(c1ccccc1)n1ncc2c1nc(N)n1nc(-c3ccco3)nc21` (centres unmarked) [Example 49, 2-(5-amino-2-(furan-2-yl)-7H-pyrazolo[4,3-e][1,2,4]triazolo[1,5-c]pyrimidin-7-yl)-2-phenyl-N-((tetrahydrofuran-2-yl)methyl)propanamide] the figure was 3.7 nM.
`CC1(O)CCC(NC(=O)[C@@](C)(c2ccccc2)n2ncc3c2nc(N)n2nc(-c4ccco4)nc32)CC1` (stereo in doubt) [Example 33B, (R)-2-(5-amino-2-(furan-2-yl)-7H-pyrazolo[4,3-e][1,2,4]triazolo[1,5-c]pyrimidin-7-yl)-(trans)-N-(4-hydroxy-4-methylcyclohexyl)-2-phenylpropanamide] displayed an IC50 of 2.3 nM.
`C[C@](C(=O)NCc1cc(C(F)(F)F)ccn1)(c1ccccc1)n1ncc2c1nc(N)n1nc(-c3ccco3)nc21` [Example 143B, (R)-2-(5-amino-2-(furan-2-yl)-7H-pyrazolo[4,3-e][1,2,4]triazolo[1,5-c]pyrimidin-7-yl)-2-phenyl-N-((4-(trifluoromethyl)pyridin-2-yl)methyl)propanamide] showed an IC50 of 5.8 nM.
For `CC(C(=O)NCCC1CCOC1)(c1ccccc1)n1ncc2c1nc(N)n1nc(-c3ccco3)nc21` (centres unmarked) [Example 74, 2-(5-amino-2-(furan-2-yl)-7H-pyrazolo[4,3-e][1,2,4]triazolo[1,5-c]pyrimidin-7-yl)-2-phenyl-N-(2-(tetrahydrofuran-3-yl)ethyl)propanamide] the value was 11.1 nM.

Source of the values: patent US11472811B2, “Pyrazolotriazolopyrimidine derivatives as A2A receptor antagonist” (BEIGENE, LTD., priority 2018, dated 2022).
